Test results as given in ChEMBL document CHEMBL4622854, “Synthetic bioactive olivetol-related amides: The influence of the phenolic group in cannabinoid receptor activity” (Bioorg Med Chem, 2020).
Active and inactive are the calls of the source. The rule behind the calls is not given here.

Assays:
Homo sapiens = species: Homo sapiens; experiment: Selectivity ratio of Ki for displacement of [3H]-CP55940 from human recombinant CB1 receptor expressed in HEK293 cell membrane to Ki for displacement of [3H]-CP55940 from human recombinant CB2 receptor expressed in HEK293 cell membrane
Cannabinoid receptor 1 [1] = target: T1, Cannabinoid receptor 1 (Homo sapiens, UniProt P21554); experiment: Displacement of [3H]-CP55940 from human recombinant CB1 receptor expressed in HEK cell membrane; type: cell membranes
Cannabinoid receptor 2 [2] = target: T2, Cannabinoid receptor 2 (Homo sapiens, UniProt P34972); experiment: Displacement of [3H]-CP55940 from human recombinant CB2 receptor expressed in HEK cell membrane; type: cell membranes
Cannabinoid receptor 2 [3] = target: T2, Cannabinoid receptor 2; experiment: Agonist activity at human CB2 receptor expressed in CHO cell membrane assessed as stimulation of [35S]-GTPgammaS binding incubated for 1 hr by liquid scintillation counting assay relative to control
Cannabinoid receptor 1 [4] = target: T1, Cannabinoid receptor 1; experiment: Agonist activity at human CB1 receptor expressed in CHO cell membrane assessed as stimulation of [35S]-GTPgammaS binding incubated for 1 hr by liquid scintillation counting assay; type: functional, cell membranes
Cannabinoid receptor 2 [5] = target: T2, Cannabinoid receptor 2; experiment: Agonist activity at human CB2 receptor expressed in CHO cell membrane assessed as inhibition of [35S]-GTPgammaS binding incubated for 1 hr by liquid scintillation counting assay; type: functional, cell membranes
Cannabinoid receptor 2 [6] = target: T2, Cannabinoid receptor 2; experiment: Antagonist activity at human CB2 receptor expressed in CHO cell membrane assessed as inhibition of CP55940-induced [35S]-GTPgammaS binding incubated for 1 hr by liquid scintillation counting
Cannabinoid receptor 1 [7] = target: T1, Cannabinoid receptor 1; experiment: Agonist activity at human CB1 receptor expressed in CHO cell membrane assessed as stimulation of [35S]-GTPgammaS binding incubated for 1 hr by liquid scintillation counting assay relative to control
Mus musculus [8] = species: Mus musculus; experiment: Antinociceptive activity in formalin-induced nociception pain CD-1 mouse model assessed as reduction in pain related behavior pretreated with compound 10 mins prior to formalin induction co-treated with AM251 measured until 60 mins by formalin test; type: functional, organism-based
Mus musculus [9] = species: Mus musculus; experiment: Antinociceptive activity in formalin-induced nociception pain CD-1 mouse model assessed as reduction in pain related behavior pretreated with compound 10 mins prior to formalin induction co-treated with AM630 measured until 60 mins by formalin test; type: functional, organism-based
Cannabinoid receptor 2 [10] = target: T2, Cannabinoid receptor 2; experiment: Agonist activity at human CB2 receptor at 10 uM expressed in CHO cell membrane assessed as stimulation of [35S]-GTPgammaS binding incubated for 1 hr by liquid scintillation counting assay relative to control
Cannabinoid receptor 2 [11] = target: T2, Cannabinoid receptor 2; experiment: Agonist activity at human CB2 receptor at 1 nM to 1 uM expressed in CHO cell membrane assessed as stimulation of [35S]-GTPgammaS binding incubated for 1 hr by liquid scintillation counting assay
Mus musculus [12] = experiment: Antinociceptive activity in formalin-induced nociception pain CD-1 mouse model assessed as reduction in pain related behavior in late phase at 6 mg/kg, ip pretreated with compound 10 mins prior to formalin induction measured after 20 to 60 mins by formalin test; type: functional, organism-based
Mus musculus [13] = experiment: Antinociceptive activity in formalin-induced nociception pain CD-1 mouse model assessed as reduction in pain related behavior in late phase at 1 to 3 mg/kg, ip pretreated with compound 10 mins prior to formalin induction measured after 20 to 60 mins by formalin test; type: functional, organism-based
[14] = target: T3, Transient receptor potential cation channel subfamily V member 1 (Homo sapiens, UniProt Q8NER1); experiment: Antagonist activity at human TRPV1 expressed in HEK293 cells assessed as capsaicin-induced increase of calcium influx preincubated for 5 mins by Fluo-4AM dye based fluorescence assay; type: cell-based
[15] = target: T3, Transient receptor potential cation channel subfamily V member 1; experiment: Activation of human TRPV1 expressed in HEK293 cells assessed as calcium influx preincubated for 5 mins by Fluo-4AM dye based fluorescence assay; type: cell-based
[16] = target: T4, Transient receptor potential cation channel subfamily A member 1 (Rattus norvegicus, UniProt Q6RI86); experiment: Antagonist activity at rat recombinant TRPA1 expressed in HEK293 cells assessed as AITC-induced increase of calcium influx preincubated for 5 mins by Fluo-4AM dye based fluorescence assay; type: cell-based
HepG2 = experiment: Antiproliferation activity against human HepG2 cells assessed as reduction in cell viability at 1 uM incubated for 24 to 72 hrs by MTT assay; type: functional, cell-based
[17] = target: T4, Transient receptor potential cation channel subfamily A member 1; experiment: Activation of rat recombinant TRPA1 expressed in HEK293 cells assessed as calcium influx preincubated for 5 mins by Fluo-4AM dye based fluorescence assay; type: cell-based
[18] = target: Transient receptor potential cation channel subfamily A member 1 (Rattus norvegicus) (UniProt Q6RI86); experiment: Antagonist activity at rat recombinant TRPA1 expressed in HEK293 cells assessed as AITC-induced increase of calcium influx at 100 uM preincubated for 5 mins by Fluo-4AM dye based fluorescence assay relative to control; type: cell-based
Mus musculus [19] = experiment: Antinociceptive activity in formalin-induced nociception pain CD-1 mouse model assessed as reduction in pain related behavior in late phase through ip pretreated with compound 10 mins prior to formalin induction measured after 20 to 60 mins by formalin test; type: functional, organism-based
[20] = target: T3, Transient receptor potential cation channel subfamily V member 1; experiment: Antagonist activity at human TRPV1 expressed in HEK293 cells assessed as ionomycin-induced increase of calcium influx at 4 uM preincubated for 5 mins by Fluo-4AM dye based fluorescence assay relative to control; type: cell-based
Mus musculus [21] = experiment: Antinociceptive activity in formalin-induced nociception pain CD-1 mouse model assessed as reduction in pain related behavior in first phase at 4 mg/kg, ip pretreated with compound 10 mins prior to formalin induction measured from 0 to 10 mins by formalin test; type: functional, organism-based

T2 sequence (P34972 whole entry): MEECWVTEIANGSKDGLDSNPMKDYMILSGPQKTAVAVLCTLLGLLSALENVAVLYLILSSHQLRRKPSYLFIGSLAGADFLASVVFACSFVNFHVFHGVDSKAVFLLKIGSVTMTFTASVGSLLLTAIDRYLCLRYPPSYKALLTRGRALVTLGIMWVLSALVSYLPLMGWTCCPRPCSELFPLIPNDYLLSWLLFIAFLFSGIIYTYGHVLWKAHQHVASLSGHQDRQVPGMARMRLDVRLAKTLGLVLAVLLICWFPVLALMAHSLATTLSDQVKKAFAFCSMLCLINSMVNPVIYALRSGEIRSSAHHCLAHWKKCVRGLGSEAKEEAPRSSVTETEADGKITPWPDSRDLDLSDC
T3 sequence (Q8NER1 whole entry): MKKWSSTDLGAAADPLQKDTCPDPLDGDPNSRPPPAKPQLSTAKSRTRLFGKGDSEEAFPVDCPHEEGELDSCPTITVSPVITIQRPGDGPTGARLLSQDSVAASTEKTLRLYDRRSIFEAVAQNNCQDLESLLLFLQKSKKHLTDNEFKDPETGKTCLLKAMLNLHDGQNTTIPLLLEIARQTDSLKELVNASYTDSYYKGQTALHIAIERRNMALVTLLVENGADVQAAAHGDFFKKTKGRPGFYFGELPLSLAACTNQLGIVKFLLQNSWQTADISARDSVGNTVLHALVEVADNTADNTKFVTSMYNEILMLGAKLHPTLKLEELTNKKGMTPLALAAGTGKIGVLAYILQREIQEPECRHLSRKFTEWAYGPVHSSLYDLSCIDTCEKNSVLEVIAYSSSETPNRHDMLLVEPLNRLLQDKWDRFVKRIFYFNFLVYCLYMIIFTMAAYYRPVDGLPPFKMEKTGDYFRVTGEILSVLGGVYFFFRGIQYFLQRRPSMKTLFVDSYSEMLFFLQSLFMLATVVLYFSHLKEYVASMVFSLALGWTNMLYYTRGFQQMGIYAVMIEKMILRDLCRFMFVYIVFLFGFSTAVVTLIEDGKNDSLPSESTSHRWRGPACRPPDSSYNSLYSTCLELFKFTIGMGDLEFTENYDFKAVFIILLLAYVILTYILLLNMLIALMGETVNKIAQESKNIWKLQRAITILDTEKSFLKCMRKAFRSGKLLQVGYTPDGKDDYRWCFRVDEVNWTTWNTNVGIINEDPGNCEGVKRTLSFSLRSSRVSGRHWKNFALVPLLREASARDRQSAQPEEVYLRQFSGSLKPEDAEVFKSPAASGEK
T1 sequence (P21554 whole entry): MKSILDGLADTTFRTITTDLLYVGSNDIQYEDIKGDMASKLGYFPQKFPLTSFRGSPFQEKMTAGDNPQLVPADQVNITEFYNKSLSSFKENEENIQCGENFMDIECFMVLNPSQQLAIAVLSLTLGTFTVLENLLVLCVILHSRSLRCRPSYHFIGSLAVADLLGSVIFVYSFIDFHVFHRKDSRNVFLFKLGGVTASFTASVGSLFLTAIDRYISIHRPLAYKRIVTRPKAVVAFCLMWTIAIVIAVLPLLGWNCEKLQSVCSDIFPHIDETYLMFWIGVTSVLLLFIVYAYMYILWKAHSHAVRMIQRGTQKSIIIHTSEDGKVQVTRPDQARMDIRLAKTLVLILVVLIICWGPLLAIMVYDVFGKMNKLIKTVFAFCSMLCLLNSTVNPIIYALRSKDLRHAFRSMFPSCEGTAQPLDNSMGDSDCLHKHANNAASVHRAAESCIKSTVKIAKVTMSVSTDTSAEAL
T4 sequence (Q6RI86 whole entry): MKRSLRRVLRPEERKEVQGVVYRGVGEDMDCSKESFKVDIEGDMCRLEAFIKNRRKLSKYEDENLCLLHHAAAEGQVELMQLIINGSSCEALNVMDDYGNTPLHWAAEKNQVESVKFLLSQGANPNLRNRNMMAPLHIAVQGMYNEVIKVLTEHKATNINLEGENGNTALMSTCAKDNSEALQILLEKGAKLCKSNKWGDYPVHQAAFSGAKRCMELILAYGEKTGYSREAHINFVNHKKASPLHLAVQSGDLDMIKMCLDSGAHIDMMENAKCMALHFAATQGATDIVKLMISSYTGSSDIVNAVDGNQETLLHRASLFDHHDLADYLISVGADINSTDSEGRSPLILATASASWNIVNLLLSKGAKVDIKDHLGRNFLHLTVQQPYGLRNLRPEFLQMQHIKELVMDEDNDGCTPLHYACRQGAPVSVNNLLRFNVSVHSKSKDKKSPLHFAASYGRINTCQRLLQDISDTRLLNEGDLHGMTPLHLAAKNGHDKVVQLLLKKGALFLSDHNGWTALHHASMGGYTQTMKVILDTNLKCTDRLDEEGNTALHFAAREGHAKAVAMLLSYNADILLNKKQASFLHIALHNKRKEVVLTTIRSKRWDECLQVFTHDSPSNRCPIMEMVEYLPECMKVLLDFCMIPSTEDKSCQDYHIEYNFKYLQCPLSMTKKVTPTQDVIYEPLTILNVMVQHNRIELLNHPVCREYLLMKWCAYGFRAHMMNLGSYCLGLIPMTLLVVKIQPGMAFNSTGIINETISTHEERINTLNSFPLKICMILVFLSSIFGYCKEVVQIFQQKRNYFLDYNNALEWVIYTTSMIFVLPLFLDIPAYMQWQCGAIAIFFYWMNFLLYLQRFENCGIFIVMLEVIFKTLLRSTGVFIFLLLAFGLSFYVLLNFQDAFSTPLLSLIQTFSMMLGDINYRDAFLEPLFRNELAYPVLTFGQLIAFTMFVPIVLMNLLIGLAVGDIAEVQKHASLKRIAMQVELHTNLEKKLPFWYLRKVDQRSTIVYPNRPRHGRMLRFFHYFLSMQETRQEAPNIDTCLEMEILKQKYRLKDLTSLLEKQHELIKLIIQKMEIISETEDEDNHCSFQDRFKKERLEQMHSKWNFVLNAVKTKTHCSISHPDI
Sequence of Transient receptor potential cation channel subfamily A member 1 (Rattus norvegicus) (Q6RI86 whole entry): as above

With CCCCCc1cc(OCCCC)cc(OCCCCCCCCCCC(=O)NC2CC2)c1 the Selectivity ratio (Homo sapiens) was 0.5, the Ki (Cannabinoid receptor 1 [1]) was 11.3 nM and the Ki (Cannabinoid receptor 2 [2]) was 21.5 nM.

CCCCCc1cc(OC)cc(OCCCCCCCCCCC(=O)NCCO)c1 was tested, and the Selectivity ratio (Homo sapiens) was 2.6, the Ki (Cannabinoid receptor 1 [1]) was 87.6 nM and the Ki (Cannabinoid receptor 2 [2]) was 33.2 nM.

Compound C=CCOc1cc(CCCCC)cc(OCCCCCCCCCCC(=O)NC2CC2)c1 has a Selectivity ratio (Homo sapiens) of 2.9, a Ki (Cannabinoid receptor 1 [1]) of 13.6 nM and a Ki (Cannabinoid receptor 2 [2]) of 4.7 nM.

CCCCCCC(C)(C)c1cc(OC)cc(OCCCCCCCC(=O)NCCO)c1 showed a Selectivity ratio (Homo sapiens) of 0.7, a Ki (Cannabinoid receptor 1 [1]) of 89.1 nM and a Ki (Cannabinoid receptor 2 [2]) of 129 nM.

With CCCCCCC(C)(C)c1cc(OC)cc(OCCCCCCCCCCC(=O)NC(CO)CO)c1 the Selectivity ratio (Homo sapiens) was over 7.3, the Ki (Cannabinoid receptor 1 [1]) was over 10000 nM and the Ki (Cannabinoid receptor 2 [2]) was 1370 nM.

Work on CCCCCc1cccc(OCCCCCCCCCCC(=O)NC2CC2)c1 yielded an Emax (Cannabinoid receptor 2 [3]) of -13%, a Selectivity ratio (Homo sapiens) of 1.7 and an EC50 (Cannabinoid receptor 1 [4]) of 31 nM. The EC50 (Cannabinoid receptor 2 [5]) was 1.28 nM, the Kb (Cannabinoid receptor 2 [6]) was 78.2 nM and the Ki (Cannabinoid receptor 1 [1]) was 5.9 nM. For the same compound, the Ki (Cannabinoid receptor 2 [2]) was 3.5 nM and the Emax (Cannabinoid receptor 1 [7]) was 29.5%.

CCCCCCC(C)(C)c1cc(OC)cc(OCCCCCCCCCCC(=O)NC2CC2)c1 gave a Selectivity ratio (Homo sapiens) of 10.7, a Ki (Cannabinoid receptor 1 [1]) of 280 nM and a Ki (Cannabinoid receptor 2 [2]) of 26.1 nM.

CCCCCc1cc(OC)cc(OCCCCCCCCCCC(=O)NC2CC2)c1 was tested, and the Activity (Mus musculus [8]) was “inactive”, the Selectivity ratio (Homo sapiens) was 2.9 and the EC50 (Cannabinoid receptor 1 [4]) was 6.21 nM. For the same compound, the Activity (Mus musculus [9]) was “inactive”, the EC50 (Cannabinoid receptor 2 [5]) was 398 nM and the Kb (Cannabinoid receptor 2 [6]) was 37.8 nM. For the same compound, the Emax (Cannabinoid receptor 2 [10]) was -17.8%, the Activity (Cannabinoid receptor 2 [11]) was “Active” and the Activity (Mus musculus [12]) was “Active”. The Ki (Cannabinoid receptor 1 [1]) was 3.5 nM, the Ki (Cannabinoid receptor 2 [2]) was 1.2 nM and the Activity (Mus musculus [13]) was “inactive”. The Emax (Cannabinoid receptor 1 [7]) was 62.7%.

With CCCCCc1cc(OC)cc(OCCCCCCCCCCC(=O)Nc2ccccc2)c1 the Selectivity ratio (Homo sapiens) was 2.7, the Ki (Cannabinoid receptor 1 [1]) was 845 nM and the Ki (Cannabinoid receptor 2 [2]) was 309 nM.

With CCCCCCc1ccc(OCCCCCCCCCCC(=O)NCC2CC2)cc1OC the Emax (Cannabinoid receptor 2 [3]) was -18.3%, the Selectivity ratio (Homo sapiens) was 66.6 and the EC50 (Cannabinoid receptor 2 [5]) was 174 nM. For the same compound, the Kb (Cannabinoid receptor 2 [6]) was 30.6 nM, the Activity (Cannabinoid receptor 2 [11]) was “Active” and the Ki (Cannabinoid receptor 1 [1]) was 3250 nM. For the same compound, the Ki (Cannabinoid receptor 2 [2]) was 48.8 nM.

With CCCCCc1cc(OCCCCCCCCCCC(=O)NC2CC2)cc(OC(C)C)c1 the Selectivity ratio (Homo sapiens) was 7.7, the Ki (Cannabinoid receptor 1 [1]) was 20.7 nM and the Ki (Cannabinoid receptor 2 [2]) was 2.7 nM.

Compound C=CCNC(=O)CCCCCCCCCCOc1cc(CCCCC)cc(OC)c1 has a Selectivity ratio (Homo sapiens) of 3.5, a Ki (Cannabinoid receptor 1 [1]) of 23.7 nM and a Ki (Cannabinoid receptor 2 [2]) of 6.8 nM.

In the case of CCCCCc1cc(OCC)cc(OCCCCCCCCCCC(=O)NC2CC2)c1, the Selectivity ratio (Homo sapiens) is reported as 1.8, the Ki (Cannabinoid receptor 1 [1]) is reported as 11.7 nM and the Ki (Cannabinoid receptor 2 [2]) is reported as 6.7 nM.

In the case of CCCCCCC(C)(C)c1cc(OC)cc(OCCCCCCCC(=O)NC2CC2)c1, the IC50 [14] is reported as 800 nM, the Emax (Cannabinoid receptor 2 [3]) is reported as 28.3% and the Activity (Mus musculus [8]) is reported as “inactive”. The Selectivity ratio (Homo sapiens) was 0.3, the EC50 (Cannabinoid receptor 1 [4]) was 15.1 nM and the Activity (Mus musculus [9]) was “Active”. The EC50 (Cannabinoid receptor 2 [5]) was 1.16 nM, the EC50 [15] was 120 nM and the IC50 [16] was over 100000 nM. For the same compound, the Activity (HepG2) was “inactive”, the EC50 [17] was 11100 nM and the Ki (Cannabinoid receptor 1 [1]) was 1.1 nM. The Ki (Cannabinoid receptor 2 [2]) was 4.2 nM, the Efficacy [18] was 17.2% and the Activity (Mus musculus [19]) was “Dose-dependent effect”. The Emax (Cannabinoid receptor 1 [7]) was 52.5%, the Efficacy [20] was 29.4% and the Activity (Mus musculus [21]) was “Active”.

CCCCCc1cc(O)cc(OCCCCCCCCCCC(=O)NC2CC2)c1 showed a Selectivity ratio (Homo sapiens) of 0.4.

In the case of CCCCCc1cc(OC)cc(OCCCCCCCC(=O)NCCO)c1, the Selectivity ratio (Homo sapiens) is reported as 1.8, the Ki (Cannabinoid receptor 1 [1]) is reported as 76.1 nM and the Ki (Cannabinoid receptor 2 [2]) is reported as 41.9 nM.

CCCCCc1cc(OC)cc(OCCCCCCCCCCC(=O)NC(CO)CO)c1 gave a Selectivity ratio (Homo sapiens) of 0.6, a Ki (Cannabinoid receptor 1 [1]) of 350 nM and a Ki (Cannabinoid receptor 2 [2]) of 598 nM.

CCCCCCC(C)(C)c1cc(OC)cc(OCCCCCCCC(=O)NCC(F)(F)F)c1 gave a Selectivity ratio (Homo sapiens) of 0.6, a Ki (Cannabinoid receptor 1 [1]) of 53.5 nM and a Ki (Cannabinoid receptor 2 [2]) of 92.8 nM.

Work on CCCCCc1cc(OC)cc(OCCCCCCCCCCC(=O)NCC2CC2)c1 yielded a Selectivity ratio (Homo sapiens) of 28.9, a Ki (Cannabinoid receptor 1 [1]) of 297 nM and a Ki (Cannabinoid receptor 2 [2]) of 10.3 nM.

With CCCCCCC(C)(C)c1cc(OC)cc(OCCCCCCCCCCC(=O)NCCO)c1 the Selectivity ratio (Homo sapiens) was 30, the Ki (Cannabinoid receptor 1 [1]) was 3160 nM and the Ki (Cannabinoid receptor 2 [2]) was 104 nM.

In the case of CCCCCc1cc(OC)cc(OCCCCCCCCCCC(=O)NCC(F)(F)F)c1, the Selectivity ratio (Homo sapiens) is reported as 3.3, the Ki (Cannabinoid receptor 1 [1]) is reported as 75.5 nM and the Ki (Cannabinoid receptor 2 [2]) is reported as 22.9 nM.

Work on C=CCNC(=O)CCCCCCCOc1cc(OC)cc(C(C)(C)CCCCCC)c1 yielded a Selectivity ratio (Homo sapiens) of 0.2, a Ki (Cannabinoid receptor 1 [1]) of 7.6 nM and a Ki (Cannabinoid receptor 2 [2]) of 31.2 nM.

Compound CCCCCCC(C)(C)c1cc(OC)cc(OCCCCCCCCCCC(=O)NCC2CC2)c1 has a Selectivity ratio (Homo sapiens) of 9.9, a Ki (Cannabinoid receptor 1 [1]) of 3190 nM and a Ki (Cannabinoid receptor 2 [2]) of 322 nM.

With CCCCCCc1ccc(OC)cc1OCCCCCCCCCCC(=O)NCC1CC1 the Selectivity ratio (Homo sapiens) was 11.1, the Ki (Cannabinoid receptor 1 [1]) was 693 nM and the Ki (Cannabinoid receptor 2 [2]) was 62.6 nM.
